Laboratory results from patent publication US20030129193A1 (priority 2001, published 2003).

Columns and labels:
[1] = test system: C1300 mouse neuroblastoma; assay: In vivo tumor thrombosis, C1300; design: species or system BALB/c nu/nu mice; conditions: large C1300 tumors (>1000 mm^3), 24 hours after injection
Source text: Tumor test systems were of four types: i) 3LL mouse lung carcinoma growing subcutaneously in C57BL/6 mice; ii) C1300 mouse neuroblastoma growing subcutaneously in BALB/c nu/nu mice; iii) HT29 human colorectal carcinoma growing subcutaneously in BALB/c nu/nu mice; and iv) C1300 Muγ mouse neuroblastoma growing subcutaneously in BALB/c nu/nu mice. The C1300 Muγ tumor is an interferon-γ secreting transfectant derived from the C 1300 tumor (Watanabe et al., 1989).
To establish tumors, 10^6 to 1.5×10^7 tumor cells were injected subcutaneously into the right anterior flank of the mice. When tumors had grown to various sizes, mice were randomly assigned to different study groups. […] Fab′, or bispecific antibody. Other mice received equivalent quantities IgG, Fab′ or bispecific antibody alone. The injections were performed slowly into one of the tail veins over approximately 45 seconds, usually followed by 200 μl of saline.
Twenty-four hours after being injected with tTF or immunoglobulin-tTF conjugates, the mice were anesthetized with metophane and were exsanguinated by perfusion with heparinized saline. Tumors and normal tissues were excised and immediately fixed in 3% (v/v) formalin. Paraffin sections were cut and stained with hematoxylin and eosin. Blood vessels having open lumens containing erythrocytes and blood vessels containing thrombi were counted. […]

factor X = conditions: appropriate phospholipid membrane environment; cited from earlier work
[2] = test system: H460 human non-small cell lung carcinoma; assay: Anti-tumor effects, H460; type: in vivo, nu/nu mice
Description: The tumor test systems were: i) L540 human Hodgkin's disease tumors growing in SCID mice; ii) C1300 Muγ (interferon-secreting) neuroblastoma growing in nu/nu mice; iii) H460 human non-small cell lung carcinoma growing in nu/nu mice. To establish solid tumors, 1.5×10^7 tumor cells were injected subcutaneously into the right anterior flank of SCID or BALB/c nu/nu mice (Charles River Labs., Wilmingham, Mass.). When the tumors had grown to various diameters mice were assigned to different experimental groups, each containing 4 to 9 mice.
Other mice received equivalent quantities of bispecific antibody alone. The injections were performed over ˜45 seconds into one of the tail veins, followed by 200 μl of saline. The infusions were repeated six days later. Perpendicular tumor diameters were measured at regular intervals and tumor volumes were calculated.

## tTF: extracellular domain of the mature Tissue Factor protein (amino acid 1-219)
[1]
  thrombosis of tumor vessels: virtually all vessels were thrombosed
Factor X
  factor X-activating activity, times less than native transmembrane TF: approximately 10^5 times
[2]; first treatment, small (250 mm^3) tumors
  effect on growth rate: little effect on growth rate
[2]; second treatment given at 900 mm^3
  tumor volume after regression: 550 mm^3
